This note sets out measurements from PMC12517401, “Design, synthesis, and antiproliferative activity of new 2-amino-pyrano[3,2-c]quinoline-3-carbonitriles as potential EGFR, BRAF^V600E, and HER-2 inhibitors” (RSC Advances, 2025).

For series [1], the system named is four human cancer cell lines (A-549, MCF-7, Panc-1, HT-29). As to the kind of experiment: Antiproliferative assay, average over four cancer cell lines (GI50). It is filed as cell-based. Conditions: for GI50: Homo sapiens, GI50 = mean IC50 against the four cancer cell lines; for Potency reduction fold compared to 5h (GI50): ratio of GI50 versus 5h; for Times less efficient than 5a (GI50): ratio of GI50 versus 5a. The protocol:
(§1) 4.2.2. Assay for antiproliferative effect
To explore the antiproliferative potential of compounds propidium iodide fluorescence assay was performed using different cell lines such as Panc-1 (pancreas cancer cell line), MCF-7 (breast cancer […]
calculate the total nuclear DNA, a fluorescent dye (propidium iodide, PI) is used which can attach to the DNA, thus offering a quick and precise technique. PI cannot pass through the cell membrane and its signal intensity can be considered as directly proportional to quantity of cellular DNA. Cells whose cell membranes are damaged or have changed permeability are counted as dead ones. The assay was performed by seeding the cells of different cell lines at a density of 3000-7500 cells/well (in 200μl […]
atmospheric conditions. The medium was removed; the compounds were added to the plates at 10 μM concentrations (in 0.1% DMSO) in triplicates, followed by incubation for 48h. DMSO (0.1%) was used as control. After incubation, medium was removed followed by the addition of PI (25 μl, 50μg/mL in water/medium) to each well of the plates. At -80 °C, the plates were allowed to freeze for 24 h, followed by thawing at 25 °C. A fluorometer (Polar-Star BMG Tech) was used to record the readings at excitation and emission wavelengths of 530 and 620 nm for each well. The percentage cytotoxicity of compounds was calculated using the following formula:
Where ATC= Absorbance of treated cells and AC= Absorbance of control. […]
positive control in the assay. […]

A further series concerns colon cancer (HT-29). As to the kind of experiment: Antiproliferative assay, HT-29. It is filed as cell-based. Particulars: Homo sapiens; HT-29 colon cancer cell line; read-out: Antiproliferative activity IC50 ± SEM (nM) HT-29. The protocol: as §1
(§2) To explore the antiproliferative potential of compounds propidium iodide fluorescence assay was performed using different cell lines such as Panc-1 (pancreas cancer cell line), MCF-7 (breast cancer cell line), HT-29 (colon cancer cell line) and A-549 (epithelial cancer cell line), respectively. To calculate the total nuclear DNA, a fluorescent dye (propidium iodide, PI) is used which can attach to the DNA, thus offering a quick and precise technique. PI cannot pass through the cell membrane and its signal intensity can be considered as directly proportional to quantity of cellular DNA. Cells whose cell membranes are damaged or have changed permeability are counted as dead ones. The assay was performed by seeding the cells of different cell lines at a density of 3000-7500 cells/well (in 200μl medium) in culture plates followed by incubation for 24h at 37 °C in humidified 5%CO2/95% air atmospheric conditions. The medium was removed; the compounds were added to the plates at 10 μM concentrations (in 0.1% DMSO) in triplicates, followed by incubation for 48h. DMSO (0.1%) was used as control. After incubation, medium was removed followed by the addition of PI (25 μl, 50μg/mL in water/medium) to each well of the plates. At -80 °C, the plates were allowed to freeze for 24 h, followed by thawing at 25 °C. A fluorometer (Polar-Star BMG Tech) was used to record the readings at excitation and emission wavelengths of 530 and 620 nm for each well. The percentage cytotoxicity of compounds was calculated using the following formula:
(§3) Where ATC= Absorbance of treated cells and AC= Absorbance of control. Erlotinib was used as positive control in the assay. […]

Series [2] relates to pancreatic cancer (Panc-1). As to the kind of experiment: Antiproliferative assay, Panc-1. The series is classed as cell-based. Particulars: Homo sapiens; Panc-1 pancreatic cancer cell line; read-out: Antiproliferative activity IC50 ± SEM (nM) Panc-1. The protocol: as §1, §2, §3
The subject of a further series is lung cancer (A-549). As to the kind of experiment: Antiproliferative assay, A-549. It is filed as cell-based. Conditions: Homo sapiens, A549; A-549 lung cancer cell line; read-out: Antiproliferative activity IC50 ± SEM (nM) A-549. The protocol:
as §1, §2, §3
(1 picture or pasted object on this page, not shown here)

Series [3] is described as follows: Cell viability assay (MTT) on MCF-10A normal cell line. Conditions: human, MCF-10A mammary gland epithelial normal cells, MCF-10A cells, 50 μM of each compound, four days of incubation. The series is classed as cell-based. The protocol: The human mammary gland epithelial (MCF-10A) normal cell line was used to examine the viability effects of new derivatives 5a–l using the MTT test.[33,34] Refer to Appendix A for more details.
The human mammary gland epithelium (MCF-10A) normal cell line was employed to evaluate the viability effects of novel derivatives 5a–l. The cell viability of 5a–l was assessed via the MTT assay following four days of incubation with 50 μM of each compound on MCF-10A cells.[33,34] […]
4.2. Biological evaluation
4.2.1 Cell Viability assay (MTT assay)
MTT assay was performed to investigate the effect of the synthesized compounds on mammary epithelial cells (MCF-10A). The cells were propagated in medium consisting of Ham's F-12 medium/ Dulbecco's modified Eagle's medium (DMEM) (1:1) supplemented with 10% foetal calf serum, 2 mM glutamine, insulin (10 μg/mL), hydrocortisone (500 ng/mL) and epidermal growth factor (20 ng/mL). Trypsin ethylenediamine tetra acetic acid (EDTA) was used to passage the cells after every 2-3 days. 96-well flat-bottomed cell culture plates were used to seed the cells at a density of 10^4 cells mL-1. The medium was aspirated from all the wells of culture plates after 24 h followed by the addition of synthesized compounds (in 200 μL medium to yield a final concentration of 0.1% (v/v) dimethyl sulfoxide) into individual wells of the plates. Four wells were designated to a single compound. The plates were allowed to incubate at 37°C for 96 h. Afterwards, the medium was aspirated and 3-[4,5-dimethylthiazol-2-yl]-2,5-diphenyltetrazolium bromide (MTT) (0.4 mg/mL) in medium was added to each well and subsequently incubated for 3 h. The medium was aspirated and 150 μL dimethyl sulfoxide (DMSO) was added to each well. The plates were vortexed followed by the measurement of absorbance at 540 nm on a microplate reader. The results were presented as inhibition (%) of proliferation in contrast to controls comprising 0.1% DMSO. […]

Another series deals with breast cancer (MCF-7). As to the kind of experiment: Antiproliferative assay, MCF-7. Particulars: for IC50: Homo sapiens, MCF7, MCF-7 breast cancer cell line, read-out: Antiproliferative activity IC50 ± SEM (nM) MCF-7. It is filed as cell-based, human. The protocol:
as §1, §2, §3

A further series deals with BRAF^V600E (Mus musculus, UniProt P28028, V585E). Nature of the series: BRAF^V600E inhibitory assay.
In another series the target is T1, HER-2 (Homo sapiens, UniProt P04626).
T1 construct: purchased Abcam ab60866
Nature of the series: HER-2 inhibitory assay (ADP-Glo kinase assay). It is filed as biochemical. Conditions: read-out: HER-2 inhibition IC50 ± SEM. The protocol:
The results are presented as IC50 values. Lapatinib served as the reference medication. Appendix A describes more experimental details.
Lapatinib functioned as the reference drug. […]
4.2.5. HER-2 inhibitory assay
The ADP-Glo™ Kinase Assay was used for kinase activity detection, related kinases information:
HER-2 (ab60866, Abcam), with a concentration of 100 ng/mL. Target compounds were dissolved in DMSO to obtain drug solutions with different concentrations, and the compound concentrations in the final reaction system (100 μL) were 1 nM, 20 nM, 40 nM, 80 nM, and 100 nM, respectively. 10μL of the solution containing compounds was transferred to a 96-well plate, then added 40 μL of 1 × kinase buffer (50 mM HEPES, pH 7.5) to each well, and mixed the mixture in the 96-well plate on a shaker for 10 min. Next, added 25 μL of ADP-Glo™ reagent to the above wells, mixed and incubated for another 40 min. Distributed 10 μL kinase detection reagent to the reaction and incubated for 30 min. Finally, the full-wavelength microplate reader was used to record the OD value.
4.3. Statistical analysis
Computerized Prism 5 program was used to statistically analyzed data using one-way ANOVA test followed by Tukey’s as post ANOVA for multiple comparison at P ≤.05. Data were presented as […]
(ADP-Glo first removes unused ATP, then detects ADP through luciferase.)

Another series deals with EGFR (Homo sapiens, UniProt P00533). As to the kind of experiment: EGFR-TK inhibitory assay.
EGFR, sequence (P00533 669-1210): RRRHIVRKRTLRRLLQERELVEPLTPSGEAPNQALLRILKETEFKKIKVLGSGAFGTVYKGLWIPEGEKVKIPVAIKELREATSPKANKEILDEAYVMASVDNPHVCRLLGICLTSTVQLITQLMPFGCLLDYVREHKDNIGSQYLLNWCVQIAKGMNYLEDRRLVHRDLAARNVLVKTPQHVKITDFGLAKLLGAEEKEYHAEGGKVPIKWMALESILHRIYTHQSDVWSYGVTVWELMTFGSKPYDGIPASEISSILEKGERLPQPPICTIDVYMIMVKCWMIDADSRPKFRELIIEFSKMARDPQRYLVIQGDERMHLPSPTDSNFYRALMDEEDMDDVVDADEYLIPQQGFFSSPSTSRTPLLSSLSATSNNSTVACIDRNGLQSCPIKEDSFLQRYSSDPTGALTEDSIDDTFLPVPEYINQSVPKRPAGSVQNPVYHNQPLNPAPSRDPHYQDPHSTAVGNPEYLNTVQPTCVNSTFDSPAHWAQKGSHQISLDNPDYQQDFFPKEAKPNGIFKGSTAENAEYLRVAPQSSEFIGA

BRAF^V600E, sequence (P28028 whole entry V585E): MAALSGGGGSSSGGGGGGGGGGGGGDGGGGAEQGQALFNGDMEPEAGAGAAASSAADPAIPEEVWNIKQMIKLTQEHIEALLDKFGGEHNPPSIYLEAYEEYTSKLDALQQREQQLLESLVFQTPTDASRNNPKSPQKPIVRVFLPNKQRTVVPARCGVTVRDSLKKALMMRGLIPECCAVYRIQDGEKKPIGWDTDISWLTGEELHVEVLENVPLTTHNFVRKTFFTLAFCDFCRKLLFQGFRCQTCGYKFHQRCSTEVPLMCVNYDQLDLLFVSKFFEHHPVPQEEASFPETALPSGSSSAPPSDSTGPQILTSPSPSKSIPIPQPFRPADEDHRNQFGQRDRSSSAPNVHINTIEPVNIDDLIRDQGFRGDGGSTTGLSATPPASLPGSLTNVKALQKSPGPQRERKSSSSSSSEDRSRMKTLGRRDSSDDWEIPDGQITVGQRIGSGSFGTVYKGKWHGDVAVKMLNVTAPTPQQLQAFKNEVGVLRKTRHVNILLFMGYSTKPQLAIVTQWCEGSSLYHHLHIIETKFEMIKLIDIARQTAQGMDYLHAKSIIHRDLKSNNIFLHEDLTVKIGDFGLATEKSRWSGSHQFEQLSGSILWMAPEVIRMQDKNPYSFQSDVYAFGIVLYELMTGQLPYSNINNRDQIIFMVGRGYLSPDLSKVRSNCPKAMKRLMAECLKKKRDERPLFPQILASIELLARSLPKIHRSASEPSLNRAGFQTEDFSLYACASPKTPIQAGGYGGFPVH
T1 sequence (P04626 23-1255): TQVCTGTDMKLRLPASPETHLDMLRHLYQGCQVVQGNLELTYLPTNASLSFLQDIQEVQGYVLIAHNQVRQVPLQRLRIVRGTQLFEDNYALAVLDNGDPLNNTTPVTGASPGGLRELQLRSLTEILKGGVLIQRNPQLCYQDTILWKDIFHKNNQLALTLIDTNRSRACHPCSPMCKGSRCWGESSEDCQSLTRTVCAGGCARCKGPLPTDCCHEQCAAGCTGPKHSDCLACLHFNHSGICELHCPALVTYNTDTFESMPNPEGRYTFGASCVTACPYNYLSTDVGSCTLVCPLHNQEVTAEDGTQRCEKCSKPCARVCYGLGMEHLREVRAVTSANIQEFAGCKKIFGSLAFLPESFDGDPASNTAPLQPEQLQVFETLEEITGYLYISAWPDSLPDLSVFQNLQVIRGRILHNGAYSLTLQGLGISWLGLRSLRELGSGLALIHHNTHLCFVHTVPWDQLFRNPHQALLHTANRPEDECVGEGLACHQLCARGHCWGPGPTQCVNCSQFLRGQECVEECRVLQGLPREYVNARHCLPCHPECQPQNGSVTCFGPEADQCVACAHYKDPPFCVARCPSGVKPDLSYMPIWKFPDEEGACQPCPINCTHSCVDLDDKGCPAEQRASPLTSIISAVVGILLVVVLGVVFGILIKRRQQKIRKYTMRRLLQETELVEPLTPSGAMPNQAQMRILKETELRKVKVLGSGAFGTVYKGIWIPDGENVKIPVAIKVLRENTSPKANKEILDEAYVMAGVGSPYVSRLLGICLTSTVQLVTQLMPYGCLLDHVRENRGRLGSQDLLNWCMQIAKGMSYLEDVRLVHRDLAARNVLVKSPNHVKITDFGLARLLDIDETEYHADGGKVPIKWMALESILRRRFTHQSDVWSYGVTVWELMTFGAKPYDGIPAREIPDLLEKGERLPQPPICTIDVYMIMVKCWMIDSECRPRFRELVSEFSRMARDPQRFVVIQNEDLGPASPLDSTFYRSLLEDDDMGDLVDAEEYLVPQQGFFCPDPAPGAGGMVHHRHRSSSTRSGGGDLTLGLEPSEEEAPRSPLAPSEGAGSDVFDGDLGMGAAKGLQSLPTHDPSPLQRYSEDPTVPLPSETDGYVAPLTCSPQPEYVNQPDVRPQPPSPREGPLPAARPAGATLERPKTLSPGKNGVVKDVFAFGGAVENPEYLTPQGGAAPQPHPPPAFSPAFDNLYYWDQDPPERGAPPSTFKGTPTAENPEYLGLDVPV
Method for EGFR: Baculoviral expression vectors including pBlueBacHis2B and pFASTBacHTc were used separately
upstream to the EGFR sequence comprised a sequence that encoded (His)6. Sf-9 cells were infected for 72h for protein expression. The pellets of Sf-9 cells were solubilized in a buffer containing sodium vanadate (100 μM), aprotinin (10 μg/mL), triton (1%), HEPES buffer(50mM), ammonium molybdate (10 μM), benzamidine HCl (16 μg/mL), NaCl (10 mM),leupeptin (10 μg/mL) and pepstatin (10 μg/mL) at 0°C for 20 min at pH 7.4, followed by centrifugation for 20 min. To eliminate the nonspecifically bound material, a Ni-NTA super flow packed column was used to pass through and wash the crude extract supernatant first with 10mM and then with 100 mM imidazole. Histidine-linked proteins were first eluted with 250 and then with 500 mM imidazole subsequent to dialysis against NaCl (50 mM), HEPES (20 mM), glycerol (10%) and 1 μg/mL each of aprotinin, leupeptin and pepstatin for 120 min. The purification was performed either at 4 °C or on ice. To record autophosphorylation level, EGFR kinase assay was carried out on the basis of DELFIA/Time-Resolved Fluorometry. The compounds were first dissolved in DMSO absolute, subsequent to dilution to appropriate concentration using HEPES (25 mM) at pH 7.4. Each compound (10 μL) was incubated with recombinant enzyme (10 μL, 5 ng for EGFR, 1:80 dilution in 100 mM HEPES) for 10 min at 25 °C, subsequent to the addition of 5X buffer (10 μL, containing 2 mM MnCl2, 100 μM Na3VO4, 20 mM HEPES and 1 mM DTT) and ATP-MgCl2 (20 μL, containing 0.1 mM ATP and 50 mM MgCl2) and incubation for 1h. The negative and positive controls were included in each plate by the incubation of enzyme either with or without ATP-MgCl2. The liquid was removed after incubation and the plates were washed thrice using a wash buffer. The Europium-tagged antiphosphotyrosine antibody (75 μL, 400 ng) was added to each well followed by incubation of 1h
and then washing of the plates using buffer. The enhancement solution was added to each well and
autophosphorylation percentage inhibition by compounds was calculated using the following
calculated. The majority of signals detected by antiphosphotyrosine antibody were from EGFR because the enzyme preparation contained low impurities.

Regarding `COc1ccc(C2C(C#N)=C(N)Oc3c2c(=O)[nH]c2ccc(C)cc32)cc1` (centres unmarked) [Compound 5g, 2-Amino-4-(4-methoxylphenyl)-9-methyl-5-oxo-5,6-dihydro-4H-pyrano[3,2-c]quinoline-3-carbonitrile], in [1], it took 0.072 µM to inhibit growth by half (GI50). Moreover, the “Potency reduction fold compared to 5h (GI50)” value (shortened to “Potency reduction fold”) in series [1] came out at 2.6 fold. For the same molecule, the IC50 (as a rule, the concentration that gives 50% inhibition) came out at 74 ± 6 nM in the series on colon cancer (HT-29), 74 ± 6 nM in [2], 71 ± 6 nM in the series on lung cancer (A-549) and 67 ± 6 nM in the series on breast cancer (MCF-7). In addition, in [3], the viability (in general, a read-out of living cells in per cent, often relative to untreated cells) at 4 days, 50 µM came out at 93%.
As to `Cc1ccc2[nH]c(=O)c3c(c2c1)OC(N)=C(C#N)C3c1ccccc1` (centres unmarked) [Compound 5b, 2-Amino-9-methyl-5-oxo-4-phenyl-5,6-dihydro-4H-pyrano[3,2-c]quinoline-3-carbonitrile], the GI50 (in general, the concentration that inhibits growth by half) in series [1] is 0.048 µM. Besides, the “Times less efficient than 5a (GI50)” value in [1] is 1.5 fold. Also, the IC50 with colon cancer (HT-29) is 50 ± 5 nM; in [2], 48 ± 4 nM; in the series with lung cancer (A-549), 48 ± 4 nM; with breast cancer (MCF-7) it was 44 ± 4 nM. In series [3], the viability at 4 days, 50 µM was 90%.
Molecule `Cn1c(=O)c2c(c3ccccc31)OC(N)=C(C#N)C2c1ccccc1` (centres unmarked) [Compound 5e, 2-Amino-6-methyl-5-oxo-4-phenyl-5,6-dihydro-4H-pyrano[3,2-c]quinoline-3-carbonitrile] yielded a GI50 in series [1] of 0.026 µM. Besides, the “Times more effective than erlotinib (GI50)” value in [1] (ratio of GI50 versus erlotinib, four cancer cell lines) was found to be 1.3 fold. Moreover, the IC50 in the series on colon cancer (HT-29) turned out to be 27 ± 2 nM; on BRAF^V600E, 0.062 ± 0.003 µM; in series [2] it was 28 ± 2 nM; in the series with lung cancer (A-549) it was 26 ± 2 nM; in the series on breast cancer (MCF-7), 24 ± 2 nM; on HER-2 it was 0.021 ± 0.001 µM. On EGFR, this molecule returned an IC50 of 0.071 ± 0.004 µM. The viability at 4 days, 50 µM in [3] is 90%. For the same molecule, the “Potency fold greater than erlotinib, MCF-7” value in the series on breast cancer (MCF-7) (ratio of IC50 versus erlotinib, MCF-7) is listed as 1.7 fold. Moreover, the “Fold more potency than erlotinib, EGFR” value at EGFR (ratio of EGFR IC50 versus erlotinib) is 1.2 fold.
As to `COc1ccc2[nH]c(=O)c3c(c2c1)OC(N)=C(C#N)C3c1ccccc1` (centres unmarked) [Compound 5c, 2-Amino-9-methoxy-5-oxo-4-phenyl-5,6-dihydro-4H-pyrano[3,2-c]quinoline-3-carbonitrile], the GI50 in series [1] amounted to 0.066 µM. In series [1], the “Times less efficient than 5a (GI50)” value is reported as 2.1 fold. The “Potency reduction fold” value in series [1] turned out to be 2.5 fold. For the same molecule, the IC50 amounted to 70 ± 6 nM with colon cancer (HT-29), 68 ± 6 nM in series [2], 66 ± 6 nM with lung cancer (A-549) and 59 ± 5 nM in the series on breast cancer (MCF-7). In series [3], this molecule registered a viability at 4 days, 50 µM of 91%.
For `COc1ccc(C2C(C#N)=C(N)Oc3c2c(=O)[nH]c2ccccc32)cc1` (centres unmarked) [Compound 5f, 2-Amino-4-(4-methoxylphenyl)-5-oxo-5,6-dihydro-4H-pyrano[3,2-c]quinoline-3-carbonitrile], in [1], the GI50 was determined as 0.054 µM. Besides, the IC50 with colon cancer (HT-29) turned out to be 56 ± 5 nM; in [2], 56 ± 5 nM; in the series with lung cancer (A-549) it was 54 ± 4 nM; in the series on breast cancer (MCF-7), 50 ± 4 nM. Moreover, the viability at 4 days, 50 µM in series [3] came to 92%.
In the case of `N#CC1=C(N)Oc2c(c(=O)[nH]c3ccccc23)C1c1ccc(Cl)cc1` (centres unmarked) [Compound 5j, 2-Amino-4-(4-chlorophenyl)-5-oxo-5,6-dihydro-4H-pyrano[3,2-c]quinoline-3-carbonitrile], it took 0.043 µM to inhibit growth in series [1] by half (GI50). Also, the IC50 was 46 ± 4 nM in the series with colon cancer (HT-29), 44 ± 4 nM in [2], 43 ± 4 nM in the series with lung cancer (A-549) and 38 ± 3 nM in the series on breast cancer (MCF-7). The same molecule registered a viability at 4 days, 50 µM in series [3] of 91%.
Molecule `Cc1ccc2[nH]c(=O)c3c(c2c1)OC(N)=C(C#N)C3c1ccc(Cl)cc1` (centres unmarked) [Compound 5k, 2-Amino-9-methyl-4-(4-chlorophenyl)-5-oxo-5,6-dihydro-4H-pyrano[3,2-c]quinoline-3-carbonitrile] showed a GI50 in series [1] of 0.039 µM. Moreover, the IC50 worked out at 42 ± 3 nM with colon cancer (HT-29), 42 ± 3 nM in series [2], 39 ± 3 nM in the series with lung cancer (A-549) and 34 ± 3 nM in the series on breast cancer (MCF-7). Besides, the viability at 4 days, 50 µM in series [3] came to 93%.
`COc1ccc2[nH]c(=O)c3c(c2c1)OC(N)=C(C#N)C3c1ccc(Cl)cc1` (centres unmarked) [Compound 5l, 2-Amino-9-methoxyl-4-(4-chlorophenyl)-5-oxo-5,6-dihydro-4H-pyrano[3,2-c]quinoline-3-carbonitrile] returned a GI50 in series [1] of 0.061 µM. Moreover, the “Potency reduction fold” value in series [1] is recorded as 2.3 fold. For the same molecule, the IC50 was found to be 63 ± 5 nM in the series on colon cancer (HT-29), 62 ± 5 nM in series [2], 60 ± 5 nM in the series on lung cancer (A-549) and 56 ± 5 nM with breast cancer (MCF-7). The viability at 4 days, 50 µM in series [3] was determined as 92%.
